Test results reported in patent US11266662B2, “Ganaxolone for use in prophylaxis and treatment of postpartum depression” (Marinus Pharmaceuticals, Inc., priority 2018, dated 2022).
Converted amounts (≈) assume the structure as drawn. “And” between values parts separate entries of the source, which are not always exact repeats. Identical values can stand only once.

What was measured:
[1] = tested on: women with postpartum depression; experiment: Mean change in HAM-D score, ganaxolone versus placebo treatment groups; format: in vivo, human; settings: worded as 'in certain embodiments'
From the text: The Hamilton Depression Rating Scale (HAM-D) is a commonly-used semi-structured clinician-rated instrument which assesses the range of symptoms that are most frequently observed in subjects with major depression. HAM-D has undergone a considerable amount of psychometric study and is accepted as a valid standard of symptom outcome assessment in studies of major depression. In the examples disclosed herein HAM-D was scored using the original 17-item HAM-D scale (HAM-D17).
Administration of ganaxolone in accordance with the methods of the present invention may provide a mean change in HAM-D score (i.e., least-squares (LS) mean reduction) at about 6 hours and/or at about 12 hours and/or about 24 hours (about 1 day) and/or about 48 hours (about 2 days) and/or about 60 hours (about 2.5 days) and/or about 72 hours (about 3 days) and/or about 11 days and/or about 30 days and/or about 34 days of from about 2 to about 17. In the preferred embodiments, the mean change in HAM-D score is greater than placebo.
The primary efficacy endpoint is HAM-D17 total score change from baseline to 60 hours post-infusion (on Day 3) for Cohorts 1-3 and to Day 29 for Cohort 6. The primary analysis in each cohort is done using the mITT set. Although the trial is not powered for inferential analysis and there is no consideration for control of type 1 error across multiple cohorts, a clinically meaningful numeric difference in means of 3-4 points, based on mITT analysis, between ganaxalone and placebo treatment groups is considered an indication of acceptable efficacy and is be the most influential outcome in the overall assessment of the efficacy of ganaxolone in treating PPD.

[2] = tested on: women with postpartum depression; experiment: Phase 2A study: safety and tolerability (adverse events); format: in vivo, human
[3] = Solubility of ganaxolone; settings: for solubility: organic solvent or mixture

Question: For `CC(=O)[C@H]1CC[C@H]2[C@@H]3CC[C@H]4C[C@](C)(O)CC[C@]4(C)[C@H]3CC[C@]12C` [ganaxolone, 3α-hydroxy-3β-methyl-5α-pregnan-20-one], which “Difference between ganaxolone and placebo treatment groups in mean change in HAM-D score” value ([1]; 12 hours) is on record?
Answer: The value was 0.7.

Question: What about the “Difference between ganaxolone and placebo treatment groups in mean change in HAM-D score” value ([1]; 24 hours) of the same compound?
Answer: Its value is 1.5.

Question: What about the “Difference between ganaxolone and placebo treatment groups in mean change in HAM-D score” value ([1]; 48 hours) of the same compound?
Answer: The value was 5.6.

Question: And the “Difference between ganaxolone and placebo treatment groups in mean change in HAM-D score” value ([1]; 60 hours)?
Answer: Its value is 4.2.

Question: What about the “Difference between ganaxolone and placebo treatment groups in mean change in HAM-D score” value ([1]; 72 hours) of the same compound?
Answer: The value was 2.9.

Question: What about the “Difference between ganaxolone and placebo treatment groups in mean change in HAM-D score” value ([1]; 11 days) of the same compound?
Answer: The value was 5.9.

Question: And the “Difference between ganaxolone and placebo treatment groups in mean change in HAM-D score” value ([1]; 34 days)?
Answer: Its value is 4.1.

Question: What about the “Serious adverse events or adverse events leading to discontinuation” value ([2]; Cohort 1: IV 4 mg/hr for 48 h then 2 mg/hr for 12 h, 9 subjects) of the same compound?
Answer: The value was “no serious adverse events or adverse events leading to discontinuation”.

Question: What about the “DC for AE” value ([2]; Cohort 6) of the same compound?
Answer: Its value is 0 n (%).

Question: And the Incidence of dizziness ([2]; Cohort 6)?
Answer: Its Incidence of dizziness is 25%.

Question: And the “Serious adverse events or adverse events leading to treatment discontinuation” value ([2]; Cohort 6)?
Answer: The value was “no serious adverse events or adverse events leading to treatment discontinuation”.

Question: And the “TEAE somnolence” value ([2]; Cohort 6)?
Answer: Its value is 0 n (%).

Question: What about the “Incidence of somnolence and sedation” value ([2]; Cohort 6: IV 20 mg/hr for 6 hours and 900 mg orally with dinner) of the same compound?
Answer: Its value is > 30% and 31.3%.

Question: And the “Tolerability of oral administration” value ([2]; Cohort 6, 900 mg orally with dinner, after Day 2)?
Answer: The value was “well tolerated”.

Question: And the solubility ([3]; 95% alcohol)?
Answer: Its solubility is 13 mg/mL (≈ 39.1 mM).

Question: And the solubility ([3]; polyethylene glycol)?
Answer: The solubility was 3.1 mg/mL (≈ 9.32 mM).

Question: And the solubility ([3]; propylene glycol)?
Answer: Its solubility is 3.5 mg/mL (≈ 10.5 mM).

Question: And the Concentration dissolved ([3]; using water soluble beta cyclodextrins)?
Answer: Its Concentration dissolved is over 1000 µg/mL.

Question: And the Solubility in water ([3]; water)?
Answer: Its Solubility in water is “insoluble”.
